According to US5494895A, “Scorpion peptide margatoxin with immunosuppressant activity” (Merck & Co., Inc., priority 1993, dated 1996):
Peptide text beside a SMILES is read from it.

Columns and labels:
[1] = molecular target: T1, lymphocyte Kv 1.3 current (Homo sapiens, UniProt P22001); assay: Whole cell patch clamp of human peripheral T-lymphocytes; assay type: cell-based
T1 construct: endogenous in cells; host or cells: purified human peripheral blood T lymphocytes
Experimental: Ionic currents were recorded from human peripheral T-lymphocytes using the whole cell patch clamp technique described in Cahalan, M. and Neher, E., Meth. Enzymol. 207, 3, 1992. Purified human T cells were obtained as described in Leonard et al., Proc. Natl. Acad. Sci. U.S.A., 89, 10094, 1992, and recordings were carried out in a bath solution consisting of ^125 mM NaCl, 2.5 mM KCl, 1.0 mM CaCl2, 2.0 mM MgCl2, 10 mM HEPES (potassium salt), 10 mM glucose, 5 mM Na-pyruvate, and 0.05% BSA. The pH was adjusted to 7.2, and experiments were performed at room temperature (19°-22° C.). The intracellular (pipette) solution contained 140 mM K-glutamate, 1 mM MgCl2, 10 mM HEPES (potassium salt), and 0.1 mM EGTA. The pH was adjusted to 7.2. Patch pipettes were fabricated from DAGAN (Minneapolis, Minn.) LG-16 glass and had resistances of 2 to 8M.OMEGA.. Currents were measured using a DAGAN model 3900 patch clamp. Delivery of command voltages, data acquisition, and post-acquisition analysis were aided by a microcomputer running the Pclamp program suite (AXON INSTRUMENTS, Foster City, Calif.).
Methods for oocyte isolation and micro-injection were previously described in Goldin, Meth. Cell Biol, 36, 487, 1991, and Swanson and Folander, Meth. Enzymol., 207, 310, 1992. Currents expressed in oocytes were measured using a DAGAN model CA-1 two-electrode voltage clamp. Delivery of command voltages, data acquisition and post-acquisition analysis were aided by a microcomputer running the Pclamp program suite. The oocyte bathing solution consisted of 96 mM NaCl, 2.5 mM KCl, 1 mM MgCl2, 1.8 mM CaCl2, 10 mM HEPES, and 0.05% BSA. The pH was 7.2. All recordings were obtained at room temperature (19°-22° C.). The intracellular microelectrodes were fabricated from DAGAN LE-16 glass in a two-stage pull to a final resistance of 0.6 to 2M.OMEGA. and filled with 3M KCl. For both lymphocyte and oocyte experiments, peptides were diluted into the extracellular solution from 20 μM aqueous stock containing 100 mM NaCl. The presence of 0.05% BSA in the bath solution inhibited non-specific loss of dilute peptide toxins in the perfusion tubing.
Both native and recombinant MgTX were tested for their ability to block voltage gated K^+ channels. […] There was insufficient native toxin to carry out selectivity studies, so those were conducted using the recombinant material exclusively. […] The apparent IC50 for inhibition of the lymphocyte Kv 1.3 current is between 20 to 100 pM. […] As reported previously, MgTX has no effect on three different ChTX-sensitive, Ca^2+ -activated K^+ channels of lymphocytes, even at 100 nM (Leonard et al., Proc. Natl. Acad. Sci. U.S.A. 89, 10094, 1992).

[2] = system: human T cells; conditions: cited from earlier work
[3] = molecular target: T2, ISK (Rattus norvegicus, UniProt P15383); assay: Two-electrode voltage clamp of Xenopus oocytes expressing ISK; assay type: cell-based; conditions: 200 nM MgTX
T2 construct: expressed in transfected cells; host or cells: Xenopus oocytes injected with RNA transcribed in vitro from the cDNA clone
T2 sequence (P15383 whole entry): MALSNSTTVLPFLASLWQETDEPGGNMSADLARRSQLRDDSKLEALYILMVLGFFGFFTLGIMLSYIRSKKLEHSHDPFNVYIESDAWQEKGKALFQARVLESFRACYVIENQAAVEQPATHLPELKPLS
T2 sequence (P70057 whole entry partner): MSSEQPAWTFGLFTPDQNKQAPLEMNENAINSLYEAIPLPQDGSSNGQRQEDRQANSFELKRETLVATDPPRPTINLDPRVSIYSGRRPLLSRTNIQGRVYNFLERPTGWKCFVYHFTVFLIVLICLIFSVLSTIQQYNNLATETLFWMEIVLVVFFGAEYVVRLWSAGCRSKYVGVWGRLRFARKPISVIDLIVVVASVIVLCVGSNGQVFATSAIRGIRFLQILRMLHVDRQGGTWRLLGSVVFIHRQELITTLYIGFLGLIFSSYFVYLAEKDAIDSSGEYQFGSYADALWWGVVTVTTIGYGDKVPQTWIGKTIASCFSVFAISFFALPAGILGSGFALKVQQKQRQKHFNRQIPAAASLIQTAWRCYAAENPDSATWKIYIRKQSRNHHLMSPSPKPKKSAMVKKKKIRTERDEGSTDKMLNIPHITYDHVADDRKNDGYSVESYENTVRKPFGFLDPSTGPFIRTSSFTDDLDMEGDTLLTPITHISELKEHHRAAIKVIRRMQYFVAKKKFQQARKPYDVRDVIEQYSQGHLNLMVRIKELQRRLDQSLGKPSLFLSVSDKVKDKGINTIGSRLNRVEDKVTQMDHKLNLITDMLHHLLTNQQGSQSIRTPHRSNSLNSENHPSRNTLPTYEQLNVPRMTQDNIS
Experimental: Ionic currents were also recorded from Xenopus oocytes that had been injected with RNA transcribed in vitro from one or another of the following K^+ channel cDNA clones. Kv 1 (rat Kv 1.5), rat or human Kv 3 (rat Kv 1.3; human Kv 1.3), Kv 4 (rat Kv 3.1 ), rat ISK, Kv 2 (rat Kv 1.6) or Drosophila Shaker-H4. The names of the clones are listed as originally published, with the appropriate parenthetical designation according to the unified gene nomenclature proposed by Chandy. Shaker-H4 is a splice variant from the original Drosophila Shaker K^+ channel gene. Kv 1.3 is the ChTX-sensitive delayed rectifier current found in rat and human T lymphocytes (data from rat and human clones were indistinguishable and were combined) and it is a member of the Shaker family. Kv 1.5 is a channel cloned from rat (Swanson et al., Neuron, 4, 929, 1990) and is another member of the Shaker family. The Kv 1.5 transcript has been detected in pancreatic β cells as described in Philipson, et al., Proc. Natl. Acad. Sci. U.S.A. 88, 53, 1991. […] The ISK transcript has been detected in lymphocytes (Attali et al., J. Biol. Chem,. 267, 8650, 1992), but no evidence of the IKs current has been found in those cells.
Methods for oocyte isolation and micro-injection were previously described in Goldin, Meth. […] Currents expressed in oocytes were measured using a DAGAN model CA-1 two-electrode voltage clamp. […]

T1 sequence (P22001 whole entry): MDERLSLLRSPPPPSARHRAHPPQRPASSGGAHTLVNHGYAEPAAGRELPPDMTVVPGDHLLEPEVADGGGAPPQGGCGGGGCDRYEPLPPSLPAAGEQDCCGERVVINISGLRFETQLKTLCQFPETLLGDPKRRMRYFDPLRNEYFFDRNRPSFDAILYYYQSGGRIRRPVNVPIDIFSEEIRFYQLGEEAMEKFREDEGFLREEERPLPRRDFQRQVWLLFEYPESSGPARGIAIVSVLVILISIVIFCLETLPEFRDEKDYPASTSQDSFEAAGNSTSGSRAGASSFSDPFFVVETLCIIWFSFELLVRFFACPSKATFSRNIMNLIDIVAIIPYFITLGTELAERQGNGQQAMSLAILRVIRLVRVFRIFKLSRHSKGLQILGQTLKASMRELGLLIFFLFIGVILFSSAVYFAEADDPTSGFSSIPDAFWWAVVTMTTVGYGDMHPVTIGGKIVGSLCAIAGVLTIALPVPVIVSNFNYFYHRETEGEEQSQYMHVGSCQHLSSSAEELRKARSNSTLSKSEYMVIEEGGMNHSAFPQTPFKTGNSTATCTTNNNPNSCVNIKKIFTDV

Q: Which “t1/2 of recovery from block following removal from the bath” value [1] does the source give for `CC[C@H](C)[C@H](NC(=O)[C@@H](N)[C@@H](C)O)C(=O)N[C@H](C(=O)N[C@@H](CC(N)=O)C(=O)N[C@H](C(=O)N[C@@H](CCCCN)C(=O)N[C@H]1CSSC[C@@H]2NC(=O)[C@H](CCCCN)NC(=O)[C@H](C)NC(=O)CNC(=O)[C@H](C)NC(=O)[C@H](CO)NC(=O)[C@H](CCC(N)=O)NC(=O)CNC(=O)[C@H](Cc3ccccc3)NC(=O)[C@H](CCC(N)=O)NC(=O)[C@H](C)NC(=O)[C@H](CCCCN)NC(=O)[C@@H]3CSSC[C@@H](C(=O)N[C@@H](Cc4ccc(O)cc4)C(=O)N4CCC[C@H]4C(=O)N[C@@H](Cc4c[nH]cn4)C(=O)O)NC(=O)[C@H](CCCCN)NC(=O)[C@H](CSSC[C@H](NC(=O)[C@H](CCC(N)=O)NC(=O)[C@H](CCCCN)NC(=O)[C@@H]4CCCN4C(=O)[C@H](CO)NC(=O)[C@H]([C@@H](C)O)NC1=O)C(=O)N[C@@H](CC(C)C)C(=O)N1CCC[C@H]1C(=O)N1CCC[C@H]1C(=O)N3)NC(=O)[C@H](CCCCN)NC(=O)CNC(=O)[C@H](CC(N)=O)NC(=O)[C@H](CCSC)NC2=O)C(C)C)[C@@H](C)CC` [MgTX, Margatoxin] (HELM PEPTIDE1{T.I.I.N.V.K.C.T.S.P.K.Q.C.L.P.P.C.K.A.Q.F.G.Q.S.A.G.A.K.C.M.N.G.K.C.K.C.Y.P.H}$PEPTIDE1,PEPTIDE1,7:R3-29:R3|PEPTIDE1,PEPTIDE1,13:R3-34:R3|PEPTIDE1,PEPTIDE1,17:R3-36:R3$$$V2.0; N-terminus and C-terminus assumed; bridges inferred) here?
A: Its value is greater than 20 min.

Q: And the “inhibition of the voltage activated K+ channel from human lymphocytes” value ([1]; at 1 nM)?
A: The value was “Complete inhibition”.

Q: What about the “potency relative to ChTX on the same preparation” value ([1]; lymphocyte Kv 1.3 current) of the same molecule?
A: The value was “five to ten-fold more potent”.

Q: What about the IC50 ([1]; read-out: apparent IC50 for inhibition of the lymphocyte Kv 1.3 current) of the same molecule?
A: The IC50 was 0.02 to 0.1 nM.

Q: And the “effect on activation and proliferation mediated by Ca2+-dependent pathways” value [2]?
A: Its value is “prevent activation and proliferation”.

Q: And the “effect on membrane potential of human T cells” value [2]?
A: The value was “depolarize human T cells”.

Q: What about the “sensitivity of cloned channel ISK to block” value [3] of the same molecule?
A: The value was “completely insensitive”.
